The target in one test is T1, yeast α-glucosidase (Saccharomyces cerevisiae, UniProt P53341).
T1 construct: α-Glucosidase [(EC 3.2.1.20) Type I: from bakers yeast]
Kind of test: In-vitro yeast α-glucosidase inhibition assay. The class given is biochemical, bakers yeast. Particulars: for inhibition at 39.063 µg/mL / inhibition at 78.125 µg/mL / inhibition at 156.25 µg/mL / inhibition at 312.5 µg/mL / inhibition at 625 µg/mL / inhibition at 1250 µg/mL / inhibition at 2500 µg/mL / inhibition at 5000 µg/mL: yeast α-glucosidase, read-out: % Inhibition (Mean ± S.E); for inhibition at 39.063 µg/mL: 0.039063 mg/ml; for inhibition at 78.125 µg/mL: 0.078125 mg/ml; for inhibition at 156.25 µg/mL: 0.15625 mg/ml; for inhibition at 312.5 µg/mL: 0.3125 mg/ml; for inhibition at 625 µg/mL: 0.625 mg/ml; for inhibition at 1250 µg/mL: 1.25 mg/ml; for inhibition at 2500 µg/mL: 2.5 mg/ml; for inhibition at 5000 µg/mL: 5 mg/ml. The source says: (§1) Chemicals: α-Glucosidase [(EC 3.2.1.20) Type I: from bakers yeast], rat intestinal acetone powder (as a source of crude intestinal α-glucosidase), α-amylase [EC 3.2.1.1) Type VI B: from porcine pancreas], p-nitrophenyl α-D-glucopyranoside, 3,5-dinitro salicylic acid, soluble potato starch and 1-deoxyrojirimycine, were purchased from Sigma Chemical Co., St Louis, Mo., USA. Other chemicals of analytical grade were procured from indigenous manufacturers.
In-vitro a-Glucosidase Inhibition Assay: Yeast and intestinal a-glucosidase inhibitory activities were determined as per reported methods (Babu et al., 2004; Mc Dougall et al., 2005). Rat intestinal acetone powder in normal saline (100% w/v) was sonicated properly and the supernatant was used as a source of crude intestinal a-glucosidase after centrifugation. In brief, 20 μl, of test samples (100 mg/ml DMSO solution) were reconstituted in 100 μl of 100 mM-Phosphate buffer (pH 6.8) in a 96-well microplate and incubated with 50 μl yeast a-glucosidase (0.76 μ/ml in same buffer) or crude intestinal a-glucosidase for 5 min before 50-μl substrate (5 mM, […] prepared in same buffer) was added. Release of p-nitrophenyol was measured at 405 nm spectrophotometrically (Spectra Mas Plus 384, Molecular Device corporation, Sunnyvale, Calif., USA) 5 min after incubation with substrate, individual blank for test samples were prepared to correct background absorbance where the substrate was replaced with 50 μl of buffer. The control sample contained 20 μl DMSO in place of test samples. The percentage of enzyme inhibition was calculated as (A−B/A)×100 where A is represents the absorbance of the control without test samples, and B represents the absorbance in the presence of test samples. […] The IC50 values were calculated by applying logarithmic regression analysis from the mean inhibitory values.

In test [1] the target is T2, porcine pancreatic α-amylase (Sus scrofa, UniProt P00690).
T2 construct: α-amylase [EC 3.2.1.1) Type VI B: from porcine pancreas]; purchased Sigma Chemical Co., St Louis, Mo., USA; host or cells: porcine pancreas (natural source)
T2 sequence (P00690 16-511): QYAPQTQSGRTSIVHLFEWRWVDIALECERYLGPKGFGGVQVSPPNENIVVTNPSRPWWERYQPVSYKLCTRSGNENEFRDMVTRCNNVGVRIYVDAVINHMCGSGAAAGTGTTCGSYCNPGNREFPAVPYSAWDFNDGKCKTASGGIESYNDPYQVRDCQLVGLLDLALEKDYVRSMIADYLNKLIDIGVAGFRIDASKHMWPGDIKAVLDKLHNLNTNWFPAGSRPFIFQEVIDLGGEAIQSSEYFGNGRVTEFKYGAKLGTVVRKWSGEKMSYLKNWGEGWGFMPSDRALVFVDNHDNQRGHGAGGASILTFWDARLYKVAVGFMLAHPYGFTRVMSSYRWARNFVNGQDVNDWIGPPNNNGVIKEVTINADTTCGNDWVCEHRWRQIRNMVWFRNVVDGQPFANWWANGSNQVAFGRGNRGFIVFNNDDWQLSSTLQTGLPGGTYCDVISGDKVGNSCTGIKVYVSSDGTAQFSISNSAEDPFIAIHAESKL
The test can be described thus: α-Amylase inhibition assay. The settings on record: for Maltose released: a/b marks the respective control (Control-1 2.147, Control-2 3.429); for inhibition at 10000 µg/mL (stock): 0.05 h. The class given is biochemical.
Excerpt: as §1
a-Amylase Inhibition Assay: The assay method was adopted from Ali et al. (2006) and modified accordingly to suite microplate reading. In brief, 40 μL of test samples (10 mg/mL DMSO) were reconstituted in 160 μL of 20 mM phosphate buffer (pH 6.9) containing 6.7 mM sodium chloride in 2 mL Eppendorf tubes and incubated with 200 μL of porcine pancreatic α-amylase) (4 U/mL prepared in ice cold distilled water) for 5 min. The reaction was started by the addition of 400-μL soluble potato starch solution (0.5% w/v in 20 mM phosphate buffer, pH 6.9). Exactly 3 min after incubation, 400 μL DNS color reagent (1.0 g of 3,5-dinitrosalicylic acid, 30 g of sodium potassium tartrate and 20 mL of 2 N NaOH to a final volume of 100 mL in distilled water) was added. Closed tubes were placed in a water bath (85-90° C.) for 10 min to develop color and cooled thereafter. 50 μL of reaction mixtures was diluted with 175 μL of distilled water in a 96-well microplate. α-Amylase activity was determined by measuring the absorbance of the mixture at 540 nm spectrophotometrically as above. Individual blanks were prepared to correct for the background absorbance due to test samples. In this case DNS solution was added in tubes before addition of substrate. The percentage inhibition of enzyme activity was calculated as above. All the tests were run in duplicate in this assay.

The test system of a further test is mice. The test can be described thus: Adenosine mediated bronchoconstriction and lung inflammation in an allergic mouse model. The arrangement: Total count: unit not given here. The settings on record: BAL fluid cells; 100 mg/kg oral. The class given is in vivo. In outline:
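Male mice sensitized i.p. with ragweed (days 1, 6), challenged with 0.5% ragweed aerosol twice daily for 3 days; 24 h later dosed orally (acacia suspension; theophylline 100 mg/kg), then challenged with adenosine (24 mg/ml) 2 h post-dose. Respiration recorded by kymograph under pentobarbitone; BAL total and differential cell counts.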

Setting [2] is: 10 mg per ml, calculated from maltose released vs respective control.

Entries after “also recorded” stand apart in the source; their conditions may differ.

T1 sequence (P53341 whole entry): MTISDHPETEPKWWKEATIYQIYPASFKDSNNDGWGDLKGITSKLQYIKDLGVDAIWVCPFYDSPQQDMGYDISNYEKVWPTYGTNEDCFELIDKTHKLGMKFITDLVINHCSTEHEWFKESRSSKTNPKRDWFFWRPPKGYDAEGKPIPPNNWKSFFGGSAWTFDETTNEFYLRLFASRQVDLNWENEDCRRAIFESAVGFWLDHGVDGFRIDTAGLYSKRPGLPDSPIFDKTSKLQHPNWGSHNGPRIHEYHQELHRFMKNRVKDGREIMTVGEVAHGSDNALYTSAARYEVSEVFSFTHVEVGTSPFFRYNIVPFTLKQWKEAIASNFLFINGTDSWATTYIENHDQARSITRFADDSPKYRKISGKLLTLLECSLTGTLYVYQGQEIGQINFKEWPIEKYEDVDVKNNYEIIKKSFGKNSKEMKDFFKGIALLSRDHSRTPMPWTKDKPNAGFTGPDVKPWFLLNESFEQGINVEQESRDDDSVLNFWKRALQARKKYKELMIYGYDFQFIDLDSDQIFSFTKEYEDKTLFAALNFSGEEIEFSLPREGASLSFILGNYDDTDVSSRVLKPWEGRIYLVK

Regarding `Cc1sc2nc3c(c(N)c2c1C)CCCC3` [BN-2, 2,3-dimethyl-5,6,7,8-tetrahydrothieno[2,3-b]quinolin-4-amine], on yeast α-glucosidase, the “Yeast α-glucosidase enzyme inhibitory activity (in words)” value is recorded as “strong significant inhibitory activity”; the inhibition – broadly, the change of the read-out against control, counted positive when it falls – at 39.063 µg/mL was 15.3 ± 2.69%; the inhibition at 78.125 µg/mL came to 20.1 ± 1.37%; the inhibition at 156.25 µg/mL came out at 25.9 ± 0.44%. Besides, at yeast α-glucosidase, the inhibition at 312.5 µg/mL turned out to be 33.4 ± 0.76%, the inhibition at 625 µg/mL came out at 39.2 ± 0.87%, the inhibition at 1250 µg/mL stood at 43.9 ± 1.92% and the inhibition at 2500 µg/mL stood at 53 ± 1.13%. In addition, the inhibition at 5000 µg/mL at yeast α-glucosidase is 56.54 ± 0.28%. Moreover, in test [1] (10 mg per ml), the “Alpha amylase inhibitory activity (in words)” value is “strong inhibitory activity; also recorded: mild inhibition” and the Maltose released is 2.095 mg/mL. Moreover, in test [1] (setting [2]), the inhibition at 10000 µg/mL (stock) was 39.7%.
Consider `Nc1c2c(nc3sc4c(c13)CCCC4)CCC2` [BN-5, 2,3,6,7,8,9-Hexahydro-1H-benzo[4,5]thieno[2,3-b]cyclopenta[e]pyridin-10-amine], for which the “Yeast α-glucosidase enzyme inhibitory activity (in words)” value at yeast α-glucosidase was “moderate inhibitory activity”. Further, the Maltose released in test [1] (10 mg per ml) worked out at 3.226 mg/mL. Moreover, the inhibition at 10000 µg/mL (stock) in test [1] (setting [2]) was 4.85%.
Regarding `Nc1c2c(nc3sc4c(c13)CCCC4)CCCC2` [BN-6, 1,2,3,4,7,8,9,10-Octahydrobenzo[4,5]thieno[2,3-b]quinolin-11-amine], the “Yeast α-glucosidase enzyme inhibitory activity (in words)” value on yeast α-glucosidase is reported as “moderate inhibitory activity”. Also, in the test with mice, the “Differential count (%) Eosinophils” value was determined as 15%, the “Differential count (%) Lymphocytes” value turned out to be 75%, the “Differential count (%) Monocytes” value turned out to be 10% and the Total count came out at 10.5. For the same compound, in test [1] (10 mg per ml), the “Alpha amylase inhibitory activity (in words)” value is “mild inhibition” and the Maltose released turned out to be 2.548 mg/mL. Moreover, the inhibition at 10000 µg/mL (stock) in test [1] (setting [2]) was 26.2%.
Consider `Nc1c2c(nc3sc4c(c13)CCC4)CCC2` [BN-13, 1,2,3,6,7,8-hexahydrocyclopenta [b]cyclopenta[4,5] thieno[3,2-e]pyridin-9-amine], for which, on yeast α-glucosidase, the “Yeast α-glucosidase enzyme inhibitory activity (in words)” value is recorded as “moderate inhibitory activity”. In the test on mice, the “Differential count (%) Eosinophils” value stood at 20%, the “Differential count (%) Lymphocytes” value came out at 74%, the “Differential count (%) Monocytes” value turned out to be 16.5% and the Total count is listed as 8. Also, in test [1] (10 mg per ml), the “Alpha amylase inhibitory activity (in words)” value is listed as “strong inhibitory activity” and the Maltose released worked out at 1.278 mg/mL.
`Nc1c2c(nc3sc4c(c13)CCC4)CCCC2` [BN-14, 2,3,6,7,8,9-Hexahydro-1H-cyclopenta[4,5]thieno[2,3-b]quinolin-10-amine]: on yeast α-glucosidase, the “Yeast α-glucosidase enzyme inhibitory activity (in words)” value is on record as “strong significant inhibitory activity”, the inhibition at 39.063 µg/mL was 19.6%, the inhibition at 78.125 µg/mL was found to be 25.84 ± 0.13% and the inhibition at 156.25 µg/mL turned out to be 33.31 ± 0.04%. Besides, at yeast α-glucosidase, the inhibition at 312.5 µg/mL was 42.8 ± 1.38%, the inhibition at 625 µg/mL turned out to be 50.3 ± 3.39%, the inhibition at 1250 µg/mL is 63.8 ± 1.71% and the inhibition at 2500 µg/mL was determined as 67.8 ± 1.18%. The inhibition at 5000 µg/mL on yeast α-glucosidase came out at 72.2 ± 1.87%. For the same compound, in the test with mice, the “Differential count (%) Eosinophils” value worked out at 15%, the “Differential count (%) Lymphocytes” value was determined as 80%, the “Differential count (%) Monocytes” value was 13.5% and the Total count worked out at 13.5. Also, in test [1] (10 mg per ml), the Maltose released came to 2.210 mg/mL. In test [1] (setting [2]), the inhibition at 10000 µg/mL (stock) was -3.06%.
Turning to `CC1CCc2c(nc3sc4c(c3c2N)CCC4)C1` (stereo not drawn) [BN-15, 7-Methyl-2,3,6,7,8,9-hexahydro-1H-cyclopenta[4,5]thieno[2,3-b]quinolin-10-amine], the “Yeast α-glucosidase enzyme inhibitory activity (in words)” value at yeast α-glucosidase is “moderate inhibitory activity”. In addition, in the test with mice, the “Differential count (%) Eosinophils” value is on record as 10%, the “Differential count (%) Lymphocytes” value was determined as 63.5%, the “Differential count (%) Monocytes” value is 16.5% and the Total count was found to be 13. Moreover, in test [1] (10 mg per ml), the “Alpha amylase inhibitory activity (in words)” value is “strong inhibitory activity” and the Maltose released was found to be 1.179 mg/mL. Moreover, in test [1] (setting [2]), the inhibition at 10000 µg/mL (stock) is 46.7%.
Turning to `Nc1c2c(nc3sc4c(c13)CCC4)CCCCCC2` [BN-17, 2,3,6,7,8,9,10,11-Octahydro-1H-cycloocta [b]cyclopenta[4,5]thieno[3,2-e]pyridin-12-amine], at yeast α-glucosidase (single concentration screen), the “Yeast α Glucosidase Inhibition (Mean ± S.E)” value is 9.40 ± 4.49%. Also, in the test on mice, the “Differential count (%) Eosinophils” value is given as 25%, the “Differential count (%) Lymphocytes” value came to 75%, the “Differential count (%) Monocytes” value was found to be 9% and the Total count was 9. In test [1] (10 mg per ml), the “Alpha amylase inhibitory activity (in words)” value is “strong inhibitory activity” and the Maltose released is 1.028 mg/mL. In addition, in test [1] (setting [2]), the % Inhibition (usually the percentage by which the read-out fell short of the control) was 53.92%.
For the compound `Nc1c2c(nc3sc4c(c13)CCCCC4)CCC2` [BN-18, 1,2,3,6,7,8,9,10-Octahydrocyclohepta[4,5] thieno[2,3-b]cyclopenta [e]pyridin-11-amine], the “Yeast α-glucosidase enzyme inhibitory activity (in words)” value on yeast α-glucosidase is recorded as “moderate inhibitory activity”. In addition, in the test on mice, the “Differential count (%) Eosinophils” value is given as 20%, the “Differential count (%) Lymphocytes” value worked out at 70%, the “Differential count (%) Monocytes” value turned out to be 15% and the Total count is listed as 18. Also, in test [1] (10 mg per ml), the Maltose released amounted to 3.972 mg/mL. Also, in test [1] (setting [2]), the inhibition at 10000 µg/mL (stock) is -16.2%. Further, the Maltose release result in test [1] (end of the reaction, vs control maltose release) is given as “more than control”.

The values are drawn from patent US20110269790A1, “NOVEL THIENOPYRIDINES AS PHARMACOLOGICALLY ACTIVE AGENTS” (priority 2009, published 2011).
